Results published in patent EP0051819A2, “Tetra-substituted benzene derivatives, their preparation and pharmaceutical preparations containing them” (F. HOFFMANN-LA ROCHE & CO. Aktiengesellschaft, priority 1980, dated 1982).
In brackets after ≈: the same amount, converted by molar mass. Like-named read-outs stand apart in the source and are kept apart here.

Assays:
Format in all cases: cell-based
[1] = Cytotoxicity in HeLa cells, observed microscopically in the antiviral test; conditions: human, hela cells; minimal concentration at which toxic symptoms were observed (cytotoxische Dosis); 2 days at 33°C; read-out: Cytotoxizität
Protocol: (§1) Eine Suspension von HeLa-Zellen (6 x 10^4) wurde mit Rhinovirus HGP (3 x 10^3 Plaque-bildende Einheiten, PFU) gemischt und auf eine Mikrotestplatte gebracht, die die zu testenden Verbindungen in zunehmender Verdünnung enthielten. Die Zellen wurden dann in Eagle's Minimalnährlösung, die 2% Kalbsserum, 1% Tryptosephosphatbrühe, 100 ug/ml Streptomycin und 20 Einheiten/ml Penicillin G enthielt, kultiviert. Der virale zytopathogenische Effekt (C.P.E.) und die Cytotoxizität wurden mikroskopisch nach 2 Tagen Kultivierung bei 33°C beobachtet. Die antivirale Aktivität (IC50) der Testverbindungen ist diejenige Konzentration,.bei der C.P.E. um 50% gegenüber der Kontrollkultur gehemmt war. Die Cytotoxizität ist als Minimalkonzentration angegeben, bei der toxische Symptome beobachtet wurden.(cytotoxische Dosis).

Rhinovirus HGP = experiment: Antiviral activity: inhibition of viral cytopathogenic effect (C.P.E.) in HeLa cell culture; conditions: for IC50: Enterovirus, HeLa, 48 h; for antivirale Aktivität: qualitative statement in the description, no virus named
Protocol: as §1

HeLa-Zellen = experiment: Cytotoxicity in HeLa cells, observed microscopically in the antiviral test; conditions: minimal concentration at which toxic symptoms were observed (cytotoxische Dosis); 2 days at 33°C
Protocol: as §1

[2] = concentration inhibiting C.P.E. by 50% versus control culture, HeLa cells, 2 days at 33°C, read-out: IC50

IC50 (Rhinovirus HGP; [2]) [µg/mL]	Structure (SMILES)	MCC at 48 h [1] [µg/mL]	antivirale Aktivität (Rhinovirus HGP)	IC50 (Rhinovirus HGP) [µg/mL]	Cytotoxizität (HeLa-Zellen) [µg/mL]
0.002 (≈ 0.00497 µM)	CCOC(=O)Oc1cc(OCC)cc(OC)c1C(=O)CCc1ccc(OC)cc1 [5-Ethoxy-3-methoxy-2-[3-(4-methoxyphenyl)propionyl]-phenyl-ethylcarbonat]	8	besonders starke antivirale Aktivität		
0.01 (≈ 0.023 µM)	CCOc1cc(OC)c(C(=O)CCc2ccc(OC)cc2)c(OC(=O)c2ccccc2)c1 [5-Ethoxy-3-methoxy-2-[3-(4-methoxyphenyl)propionyl]phenyl-benzoat]	> 8			
0.9 (≈ 1.51 µM)	CCCCCCCCCCCCCCCCCC(=O)Oc1cc(OCC)cc(OC)c1C(=O)CCc1ccc(OC)cc1 [5-Ethoxy-3-methoxy-2-[3-(4-methoxyphenyl)propionyl]phenyl-octadecanoat]	> 8			
2.7 (≈ 5.48 µM)	CCOc1cc(OC)c(C(=O)CCc2ccc(OC)cc2)c(O[C@@H]2O[C@H](CO)[C@@H](O)[C@H](O)[C@H]2O)c1 [5-Ethoxy-3-methoxy-2-[3-(4-methoxyphenyl)propionyl]phenyl-ß-D-glucopyranosid]	> 10			
	CCOc1cc(OC)c(C(=O)CCc2ccc(OC)cc2)c(OP(=O)(O)O)c1 [5-Ethoxy-3-methoxy-2-[3-(4-methoxyphenyl)propionyl]phenyldihydrogenphosphat]	> 10		0.3 to 0.8 (≈ 0.731 to 1.95 µM)	
	CCOc1cc(OC)c(C(=O)NCc2ccc(OC)cc2)c(OP(=O)([O-])[O-])c1.[Na+].[Na+] [Dinatrium 2-[(p-Anisylamino)carbonyl]-5-ethoxy-3-methoxyphenyl-phosphat]		besonders starke antivirale Aktivität	0.01 to 0.03	>8
	CCCOc1cc(OC)c(C(=O)NCc2ccc(OC)cc2)c(OP(=O)([O-])[O-])c1.[Na+].[Na+] [Dinatrium 2-[(p-anisylamino)carbonyl]-3-methoxy-5-propoxyphenylphosphat]	> 200	besonders starke antivirale Aktivität	0.01 to 0.02	
	CCOc1cc(OC)c(C(=O)CCc2ccc(OC)cc2)c(OP(=O)([O-])[O-])c1.[Na+].[Na+] [Dinatrium 5-ethoxy-3-methoxy-2-[3-(4-methoxyphenyl)-propionyl]phenylphosphat]			0.03 to 0.1	>10
0.01 to 0.03 (≈ 0.0311 to 0.0932 µM)	COc1cc(O)c(C(=O)NCc2ccc(Cl)cc2)c(OC)c1 [N-(p-Chlorobenzyl)-2-hydroxy--4,6-dimethoxybenzamid]	> 2.4			
0.03 to 0.1 (≈ 0.104 to 0.348 µM)	COc1cc(O)c(C(=O)NCc2ccccc2)c(OC)c1 [N-Benzyl-2-hydroxy-4,6-dimethoxy-benzamid]	> 8			
0.03 to 0.1 (≈ 0.108 to 0.361 µM)	COc1cc(O)c(C(=O)NCc2ccco2)c(OC)c1 [N-Furfuryl-2-hydroxy-4,6--dimethoxybenzamid]	> 8			
0.01 (≈ 0.0291 µM)	C=CCOc1ccc(CNC(=O)c2c(O)cc(OC)cc2OC)cc1 [N-[p-(Allyloxy)benzyl]-2-hydroxy-4,6-dimethoxybenzamid]	8			
0.3 to 0.9 (≈ 0.763 to 2.29 µM)	COc1cc(O)c(C(=O)NCc2ccc(OCc3ccccc3)cc2)c(OC)c1 [N-[p-(Benzyloxy)benzyl]-2--hydroxy-4,6-dimethoxybenzamid]	> 8			
0.01 (≈ 0.0303 µM)	COc1cc(O)c(C(=O)NCc2ccc(N(C)C)cc2)c(OC)c1 [N-[p-(Dimethylamino)benzyl]-2--hydroxy-4,6-dimethoxybenzamid]	> 8			

Structure (SMILES)	IC50 (Rhinovirus HGP; [2]) [µg/mL]	MCC at 48 h [1] [µg/mL]	antivirale Aktivität (Rhinovirus HGP)	IC50 (Rhinovirus HGP) [µg/mL]	Cytotoxizität (HeLa-Zellen) [µg/mL]
CCCCOc1ccc(CNC(=O)c2c(O)cc(OC)cc2OC)cc1 [N-(p-Butoxybenzyl)-2-hydroxy--4,6-dimethoxybenzamid]	0.3 (≈ 0.835 µM)	8			
